Ten compounds from ChEMBL document CHEMBL1201862, “PubChem BioAssay data set” (2004) can be followed below.

Among the test systems are HCC 2998; MDA-MB-435; UACC-257; EKVX; HL-60; SK-MEL-2; SK-MEL-28; M14; SF-268; NCI-H226; SK-MEL-5; UO-31; Hs-578T; BT-549; SW-620; HT-29; ACHN; RPMI-8226; IGROV-1; HCT-116.
Holding throughout (experiment): DTP human tumour cell line panel, 48 h

Each structure is given as a SMILES string.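 Interpolation was linear, between the two tested concentrations surrounding the appropriate level; five concentrations were tested over 48 hours in 96-well plates. GI50 marks 50% less growth.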 Active and inactive are the calls of the source. Cut-off read from the data, not from the text of the source: active = GI50 up to about 1.1 µM and inactive = higher.

As a reminder, the GI50 is the concentration at which growth is held to half of that of the control. On to `COC(=O)C1(N2CCOCC2)CCC([C@@H](c2ccccc2)C(C)[N+](=O)[O-])C1` (some centres undefined), for which the GI50 with HCC 2998 is > 100 µM (inactive); in the test on MDA-MB-435, > 100 µM (inactive); in the test on UACC-257 it was 28 µM (inactive); with EKVX, > 100 µM (inactive); with HL-60, 85.3 µM (inactive); in the test on SK-MEL-2, > 100 µM (inactive). In addition, the GI50 in the test with SK-MEL-28, in the test on M14, in the test with SF-268, with NCI-H226, in the test with SK-MEL-5 and in the test on UO-31 was > 100 µM (inactive) throughout. Further, the GI50 with Hs-578T is > 100 µM (inactive); with BT-549, 16.8 µM (inactive); with SW-620, 45.2 µM (inactive); in the test with HT-29, > 100 µM (inactive); with ACHN it was > 100 µM (inactive); in the test with RPMI-8226, 13 µM (inactive).

As to `CC1=NN(c2cccc(S(=O)(=O)O)c2)C2(C1)SCC(=O)N2c1nc2ccccc2s1` (centres undefined), the GI50 in the test with HCC 2998 is > 100 µM (inactive); in the test with MDA-MB-435 it was > 100 µM (inactive); in the test with UACC-257 it was > 100 µM (inactive); in the test on EKVX, > 100 µM (inactive); with HL-60 it was 91.2 µM (inactive); with SK-MEL-2 it was > 100 µM (inactive). The GI50 with IGROV-1, in the test on SK-MEL-28, in the test on M14, in the test on SF-268, with HCT-116 and in the test with NCI-H226 was > 100 µM (inactive) throughout. In addition, the GI50 in the test with SK-MEL-5 was > 100 µM (inactive); in the test with UO-31 it was > 100 µM (inactive); in the test on Hs-578T it was > 100 µM (inactive); in the test with BT-549 it was > 100 µM (inactive); in the test on SW-620 it was 9.1 µM (inactive); in the test on HT-29 it was > 100 µM (inactive). Besides, the GI50 with ACHN and with RPMI-8226 was > 100 µM (inactive) in each case.

Turning to `c1ccc(P(CCP(c2ccccn2)c2ccccn2)c2ccccc2)cc1`, the GI50 with HCC 2998 was 3.37 µM (inactive); in the test with MDA-MB-435 it was 12.1 µM (inactive); in the test with UACC-257 it was < 0.0185 µM (active); with EKVX it was 0.689 µM (active); with HL-60 it was 0.0398 µM (active); in the test with SK-MEL-2, 7.67 µM (inactive). Further, the GI50 in the test on IGROV-1 was < 0.01 µM (active); with SK-MEL-28 it was 64 µM (inactive); in the test on M14, 19.6 µM (inactive); in the test with HCT-116 it was 0.0192 µM (active); with NCI-H226 it was 45.3 µM (inactive); in the test with SK-MEL-5, 21.5 µM (inactive). Moreover, the GI50 was 33.3 µM (inactive) with UO-31; 7.67 µM (inactive) in the test with Hs-578T; 32.9 µM (inactive) in the test with BT-549; 3.51 µM (inactive) in the test with SW-620; 0.0247 µM (active) in the test with HT-29; 23.3 µM (inactive) in the test on ACHN. For the same compound, the GI50 in the test with RPMI-8226 is 0.0409 µM (active).

For the compound `COC(=O)[C@@H]1CS(=O)(=O)C(C(C)C)N1C(C)=O` (some centres undefined), the GI50 with HCC 2998 is > 100 µM (inactive); with MDA-MB-435, > 100 µM (inactive); with UACC-257, > 100 µM (inactive); in the test with EKVX it was > 100 µM (inactive); with HL-60, 7.19 µM (inactive); with SK-MEL-2, > 100 µM (inactive). The GI50 in the test on IGROV-1, in the test with SK-MEL-28, in the test with M14, in the test on SF-268, in the test on HCT-116 and with NCI-H226 was > 100 µM (inactive) throughout. In addition, the GI50 in the test with SK-MEL-5, in the test on UO-31, in the test on Hs-578T, in the test on BT-549, in the test on SW-620 and in the test on HT-29 was > 100 µM (inactive) throughout. Besides, the GI50 in the test with ACHN and in the test on RPMI-8226 was > 100 µM (inactive) in each case.

On to `O=C(Nc1ccc2[nH]c(C(=O)N3CC(CCl)c4c3cc([N+](=O)[O-])c3ccccc43)cc2c1)c1cc2ccccc2o1` (centres undefined), for which the GI50 with HCC 2998 was > 46.9 µM (inactive); in the test with MDA-MB-435, > 100 µM (inactive); in the test with UACC-257, > 100 µM (inactive); with EKVX, > 100 µM (inactive); in the test with HL-60, 22.1 µM (inactive); in the test with SK-MEL-2 it was > 57 µM (inactive). Also, the GI50 with IGROV-1 was > 51.6 µM (inactive); in the test on SK-MEL-28 it was > 58.1 µM (inactive); with M14, > 100 µM (inactive); with SF-268, > 100 µM (inactive); in the test with HCT-116 it was > 100 µM (inactive); in the test on NCI-H226 it was 48.9 µM (inactive). The GI50 in the test with SK-MEL-5 is > 100 µM (inactive); in the test with UO-31, > 100 µM (inactive); in the test with Hs-578T, > 100 µM (inactive); with BT-549, 38.2 µM (inactive); in the test on SW-620, > 58.1 µM (inactive); with HT-29, > 100 µM (inactive). Besides, the GI50 with ACHN is 44.8 µM (inactive); with RPMI-8226, > 100 µM (inactive).

Turning to `CC12CCCCC1=C(F)C(F)(F)S2` (centres undefined), the GI50 in the test with HCC 2998 is > 67.1 µM (inactive); with MDA-MB-435, 43.3 µM (inactive); in the test on UACC-257, 20.1 µM (inactive); with EKVX it was > 78.7 µM (inactive); in the test with HL-60, 6.64 µM (inactive); with SK-MEL-2, 75.2 µM (inactive). For the same compound, the GI50 is > 71.9 µM (inactive) with IGROV-1; 28 µM (inactive) in the test on SK-MEL-28; 37.6 µM (inactive) with M14; > 66.4 µM (inactive) with SF-268; 22.1 µM (inactive) in the test with HCT-116; > 100 µM (inactive) in the test with NCI-H226. Further, the GI50 in the test with SK-MEL-5 was 46.3 µM (inactive); in the test on UO-31 it was 15 µM (inactive); in the test on Hs-578T it was > 21.5 µM (inactive); with BT-549, 19.1 µM (inactive); in the test with SW-620, 24.5 µM (inactive); with HT-29, 20.8 µM (inactive). For the same compound, the GI50 in the test on ACHN was 22.1 µM (inactive); with RPMI-8226 it was 7.46 µM (inactive).

`C=CC(COC(=O)C(C)(C)OC(C)=O)c1ccc(OC(=O)C(C)C)c(OC)c1` (centres undefined): the GI50 in the test with HCC 2998 was 3.66 µM (inactive); in the test with MDA-MB-435, 8.91 µM (inactive); in the test on UACC-257 it was 14.6 µM (inactive); in the test on EKVX, 12.7 µM (inactive); in the test with HL-60 it was 4.6 µM (inactive); in the test on SK-MEL-2, 9.62 µM (inactive). Moreover, the GI50 in the test on IGROV-1 was 14.1 µM (inactive); in the test on SK-MEL-28, 5.19 µM (inactive); in the test on M14, 6.43 µM (inactive); with SF-268, 5.2 µM (inactive); in the test with HCT-116, 4.05 µM (inactive); in the test with NCI-H226, 18.2 µM (inactive). The GI50 in the test with SK-MEL-5 was 13.5 µM (inactive); in the test with UO-31, 7.69 µM (inactive); with Hs-578T, 7.46 µM (inactive); in the test on BT-549, 8.87 µM (inactive); in the test with SW-620, 4.84 µM (inactive); in the test on HT-29, 3.27 µM (inactive). Besides, the GI50 was 2.88 µM (inactive) with ACHN and 3.78 µM (inactive) in the test on RPMI-8226.

`Nc1ccc2c(c1)NCCN2`: the GI50 was > 100 µM (inactive) in the test with HCC 2998; 82 µM (inactive) in the test on MDA-MB-435; 82 µM (inactive) in the test on UACC-257; 54.1 µM (inactive) with EKVX; 9.71 µM (inactive) in the test on HL-60; > 100 µM (inactive) in the test on SK-MEL-2. The GI50 is 8.36 µM (inactive) with IGROV-1; > 100 µM (inactive) in the test on SK-MEL-28; 73.1 µM (inactive) with M14; 56.5 µM (inactive) in the test with SF-268; > 100 µM (inactive) with HCT-116; 7.8 µM (inactive) in the test with NCI-H226. Moreover, the GI50 in the test with SK-MEL-5 is 5.11 µM (inactive); in the test with UO-31, 17.4 µM (inactive); in the test with Hs-578T, 7.76 µM (inactive); in the test with BT-549, 37.2 µM (inactive); with HT-29, 42.3 µM (inactive); in the test on ACHN it was 6.53 µM (inactive). In the test with RPMI-8226, the GI50 was 70.1 µM (inactive).

For the compound `C[C@]12CC[C@@H]3c4cc(C=O)c(OCc5ccccc5)cc4CC[C@H]3[C@@H]1CCC2OCc1ccccc1` (some centres undefined), the GI50 with HCC 2998 is > 100 µM (inactive); in the test with MDA-MB-435, > 100 µM (inactive); with UACC-257, 58.9 µM (inactive); in the test with EKVX it was > 100 µM (inactive); in the test with HL-60 it was > 100 µM (inactive); with SK-MEL-2, > 100 µM (inactive). In addition, the GI50 in the test with SK-MEL-28 is > 100 µM (inactive); with M14 it was > 100 µM (inactive); with SF-268 it was > 100 µM (inactive); with HCT-116, > 100 µM (inactive); with NCI-H226, 32.8 µM (inactive); in the test with SK-MEL-5, > 100 µM (inactive). The GI50 with UO-31 was > 100 µM (inactive); in the test on Hs-578T, > 100 µM (inactive); in the test on BT-549, > 100 µM (inactive); in the test with SW-620, > 100 µM (inactive); in the test on HT-29, > 100 µM (inactive); in the test with ACHN it was 95.9 µM (inactive). In the test with RPMI-8226, the GI50 was > 100 µM (inactive).

For the compound `C[C@H](CCC(=O)O)[C@H]1CC[C@H]2[C@@H]3C(=O)C[C@@H]4C[C@H](O)CC[C@]4(C)[C@H]3C[C@H](O)[C@]12C`, the GI50 in the test on HCC 2998, with MDA-MB-435, in the test on UACC-257, with EKVX, with HL-60 and in the test with SK-MEL-2 was > 100 µM (inactive) throughout. The GI50 with IGROV-1, with SK-MEL-28, with M14, in the test with SF-268, in the test with HCT-116 and in the test on NCI-H226 was > 100 µM (inactive) throughout. For the same compound, the GI50 in the test with UO-31 is > 100 µM (inactive); with Hs-578T it was < 0.01 µM (active); in the test on BT-549 it was > 100 µM (inactive); in the test on SW-620 it was > 100 µM (inactive); with HT-29 it was > 100 µM (inactive); in the test with ACHN it was > 100 µM (inactive). Besides, the GI50 in the test with RPMI-8226 is > 100 µM (inactive).
